target: T1, IRAK4 (Homo sapiens, UniProt Q9NWZ3); assay: 2-hour 10 μM ATP Biochemical Assay (MesoScale Detection format; IRAK4 phosphorylation of biotin labeled IRAK1 activation loop peptide); conditions: IRAK4 MSD BIOCHEMICAL (10 μM ATP) IC50 (μM), 1 nM IRAK4, 2 hours
T1 sequence (Q9NWZ3 1-460): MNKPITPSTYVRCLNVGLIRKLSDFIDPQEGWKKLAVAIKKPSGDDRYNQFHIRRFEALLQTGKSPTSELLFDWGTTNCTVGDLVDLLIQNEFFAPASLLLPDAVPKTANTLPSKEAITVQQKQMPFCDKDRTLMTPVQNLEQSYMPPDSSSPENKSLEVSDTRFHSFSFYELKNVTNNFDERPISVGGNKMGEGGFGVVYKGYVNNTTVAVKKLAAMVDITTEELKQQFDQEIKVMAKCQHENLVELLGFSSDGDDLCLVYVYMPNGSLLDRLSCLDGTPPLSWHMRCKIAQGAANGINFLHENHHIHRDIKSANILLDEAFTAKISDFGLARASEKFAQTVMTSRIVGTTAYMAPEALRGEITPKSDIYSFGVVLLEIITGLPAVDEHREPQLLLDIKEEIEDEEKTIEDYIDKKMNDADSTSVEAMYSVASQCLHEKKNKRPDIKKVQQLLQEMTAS
Protocol: The 2-hour 10 μM ATP Biochemical Assay employs a MesoScale Detection (MSD) format.
The activity is quenched with 11 μl of 70 mM EDTA, pH 8.
To detect the phosphorylated biotinylated peptide substrate, 30 μl of the quenched reaction mixture is added to equivalent wells of a 384 well streptavidin coated MesoScale plate (Meso Scale Discovery #L21SA-1). After a 1 hour incubation of the plate for 1 hour at room temperature with gentle mixing, the plate wells are washed 3 times with 50 mM Tris, pH 7.5, 150 mM NaCl, 0.02% Tween-20.
A 25 μl volume of 1:500 anti-P-Threonine Rabbit polyclonal Antibody plus 1:500 Goat-anti-Rabbit Sulfo Tag Antibody (Meso Scale Discovery R32AB-1) in 50 mM Tris, pH 7.5, 150 mM NaCl, 0.02% Tween-20 plus 2% BSA is then added to each well. After a 1-hour incubation of the plate for 1 hour at room temperature with gentle mixing, the plate wells are washed, 3 times with 50 mM Tris, pH 7.5, 150 mM NaCl, 0.02% Tween-20. A 40 μl volume of 2×MSD Read Buffer (Meso Scale Discovery R92TC-1) is added to each well, and the plate is read immediately in an MSD Plate Reader (Meso Scale Discovery).

IC50	SMILES
0.11 µM	CCOc1cc2nc(C3CC3)cn2cc1NC(=O)c1cc2ncccn2n1 [Example 53, N-(2-cyclopropyl-7-ethoxyimidazo[1,2-a]pyridin-6-yl)pyrazolo[1,5-a]pyrimidine-2-carboxamide]
2.6 µM	CCOc1cc2nc(CC)cn2cc1NC(=O)c1ccc2c(c1)COCC2 [Example 43, N-(7-ethoxy-2-ethylimidazo[1,2-a]pyridin-6-yl)isochromane-7-carboxamide]
0.001 µM	CCOc1cc2nc(C3CCN(C)CC3)cn2cc1NC(=O)c1cccc(C(F)(F)F)n1 [Example 67, N-(7-ethoxy-2-(1-methylpiperidin-4-yl)imidazo[1,2-a]pyridin-6-yl)-6-(trifluoromethyl)picolinamide]
0.021 µM	CCOc1cc2nc(C3CCOCC3)cn2cc1NC(=O)c1ccn(C(C)(C)C)n1 [Example 207, 1-(tert-butyl)-N-(7-ethoxy-2-(tetrahydro-2H-pyran-4-yl)imidazo[1,2-a]pyridin-6-yl)-1H-pyrazole-3-carboxamide]
0.35 µM	CCOc1cc2nc(C(=O)N3CCOCC3)cn2cc1NC(=O)c1cccc(C(F)F)n1 [Example 126, 6-(difluoromethyl)-N-(7-ethoxy-2-(morpholine-4-carbonyl)imidazo[1,2-a]pyridin-6-yl)picolinamide]
0.031 µM	O=C(Nc1cn2cc(C3CCOCC3)nc2cc1F)c1cccc(C(F)F)n1 [Example 293, 6-(difluoromethyl)-N-(7-fluoro-2-(tetrahydro-2H-pyran-4-yl)imidazo[1,2-a]pyridin-6-yl)picolinamide]

Further lines, the molecule ahead of its results:

SMILES	IC50
COc1cc(NC(=O)c2cccc(C(F)F)n2)cn2cc(C3CC3(F)F)nc12 (single isomer, unassigned) [Example 513, N-(2-(2,2-difluorocyclopropyl)-8-methoxyimidazo[1,2-a]pyridin-6-yl)-6-(difluoromethyl)picolinamide]	0.015 µM
O=C(Nc1cn2cc(C3CCOCC3)nc2cc1OC1CCC1)c1cccc(C(F)F)n1 [Example 176, N-(7-cyclobutoxy-2-(tetrahydro-2H-pyran-4-yl)imidazo[1,2-a]pyridin-6-yl)-6-(difluoromethyl)picolinamide]	0.001 µM
CCOc1cc2nc(C3CCOCC3)cn2cc1NC(=O)c1cccc(OCC(F)(F)F)n1 [Example 363, N-(7-ethoxy-2-(tetrahydro-2H-pyran-4-yl)imidazo[1,2-a]pyridin-6-yl)-6-(2,2,2-trifluoroethoxy)picolinamide]	0.029 µM
CCOc1cc2nc(C3CC3)cn2cc1NC(=O)c1cccn(CC(F)(F)F)c1=O [Example 70, N-(2-cyclopropyl-7-ethoxyimidazo[1,2-a]pyridin-6-yl)-2-oxo-1-(2,2,2-trifluoroethyl)-1,2-dihydropyridine-3-carboxamide]	0.15 µM
CN(C)CCOc1cc2nc(C3CCOCC3)cn2cc1NC(=O)c1cccc(C(F)F)n1 [Example 148, 6-(difluoromethyl)-N-(7-(2-(dimethylamino)ethoxy)-2-(tetrahydro-2H-pyran-4-yl)imidazo[1,2-a]pyridin-6-yl)picolinamide]	0.023 µM
CCOc1cc2nc(CC)cn2cc1NC(=O)c1cccc(NC(C)=O)n1 [Example 32, 6-acetamido-N-(7-ethoxy-2-ethylimidazo[1,2-a]pyridin-6-yl)picolinamide]	0.064 µM
O=C(Nc1cc(C2=CCOCC2)c2nc(C3CCOCC3)cn2c1)c1cccc(C(F)(F)F)n1 [Example 107, N-(8-(3,6-dihydro-2H-pyran-4-yl)-2-(tetrahydro-2H-pyran-4-yl)imidazo[1,2-a]pyridin-6-yl)-6-(trifluoromethyl)picolinamide]	0.084 µM
CCOc1cc2nc(CC)cn2cc1NC(=O)c1ccc2c(c1)COC2 [Example 37, N-(7-ethoxy-2-ethylimidazo[1,2-a]pyridin-6-yl)-1,3-dihydroisobenzofuran-5-carboxamide]	1.7 µM
CCOc1cc2nc(CC)cn2cc1NC(=O)c1ccc(F)c(C(F)(F)F)n1 [Example 51, N-(7-ethoxy-2-ethylimidazo[1,2-a]pyridin-6-yl)-5-fluoro-6-(trifluoromethyl)picolinamide]	0.21 µM

Source: US20220089592A1, “IMIDAZO[1,2-A]PYRIDINYL DERIVATIVES AS IRAK4 INHIBITORS” (priority 2019, published 2022)
